This passage reports IC50 results from patent US7632829B2, “Diazepan derivatives” (Hoffmann-La Roche Inc., priority 2006, dated 2009).

The assay deals with T1, human chemokine receptor 2 isoform B (Homo sapiens, UniProt P41597).
T1 construct: host or cells: CHOK1-CCR2B-A5 (CHO-K1)
T1 sequence (P41597 1-360 isoform P41597-2): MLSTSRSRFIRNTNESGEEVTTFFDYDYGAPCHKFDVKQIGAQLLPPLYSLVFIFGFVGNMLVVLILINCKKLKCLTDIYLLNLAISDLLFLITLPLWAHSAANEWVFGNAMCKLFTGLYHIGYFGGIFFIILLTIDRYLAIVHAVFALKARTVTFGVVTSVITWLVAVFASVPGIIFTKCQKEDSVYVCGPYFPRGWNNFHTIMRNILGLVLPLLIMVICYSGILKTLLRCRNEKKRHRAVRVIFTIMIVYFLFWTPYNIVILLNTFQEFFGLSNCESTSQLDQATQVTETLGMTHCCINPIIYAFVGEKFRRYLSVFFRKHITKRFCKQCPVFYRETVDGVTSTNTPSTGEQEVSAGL
Briefly: Calcium mobilization assay (FLIPR, CHOK1-CCR2B-A5 cells, 20 nM MCP-1). Type of assay: cell-based. The settings on record: Ca mobilisation assay, CCR2, antagonist activity vs 20 nM MCP-1. In a few lines: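 Antagonism read as IC50 against 20 nM MCP-1-evoked calcium rise (peak minus baseline Fluo-4 signal, FLIPR) in CCR2B-overexpressing CHO-K1 cells. Compounds were preincubated 20-30 min at 30 °C, with agonist activity recorded for 80 s on addition.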
For `CN(CCN1CCN(C(=O)/C=C/c2ccc(Cl)c(Cl)c2)CCC1=O)C1CCCC1` [Example 109, 4-[-3-(Cyclopentyl-methyl-amino)-ethyl]-1-[(E)-3-(3,4-dichloro-phenyl)-acryloyl]-[1,4]diazepan-5-one], the IC50 was determined as 521 nM.
For the molecule `O=C(/C=C/c1ccc(Cl)c(F)c1)N1CCC(=O)N(CCCCN2CC(O)CCC2CO)CC1` (racemic) [Example 414], the IC50 came out at 65 nM.
As to `CC1(C)CCN(C[C@H](O)CCN2CCN(C(=O)/C=C/c3ccc(F)c(Cl)c3)CCC2=O)CC1O` (stereo partly drawn) [Example 500], the IC50 was 451 nM.
As for `O=C(/C=C/c1ccc(F)c(F)c1)N1CCC(=O)N(CC(O)CN2CCCCC2)CC1` (racemic) [Example 177, (rac)-1-[(E)-3-(3,4-Difluoro-phenyl)-acryloyl]-4-(2-hydroxy-3-piperidin-1-yl-propyl)-[1,4]diazepan-5-one], the IC50 is 954 nM.
With `N#CC1(c2ccccc2)CCN(CCN2CCN(C(=O)/C=C/c3ccc(Cl)c(Cl)c3)CCC2=O)CC1` [Example 101, 1-(-3-{4-[(E)-3-(3,4-Dichloro-phenyl)-acryloyl]-7-oxo-[1,4]diazepan-1-yl}-ethyl)-4-phenyl-piperidine-4-carbonitrile] the figure was 1230 nM; with `COC1CCCN(CCCCN2CCN(C(=O)/C=C/c3ccc(Cl)c(Cl)c3)CCC2=O)C1` (racemic) [Example 435], 281 nM.
With `O=C(/C=C/c1ccc(OCc2ccccc2)cc1)N1CCC(=O)N(CCN2CCCC2)CC1` [Example 17, 1-[(E)-3-(4-Benzyloxy-phenyl)-acryloyl]-4-(2-pyrrolidin-1-yl-ethyl)-[1,4]diazepan-5-one] the figure was 756 nM; with `O=C(/C=C/c1ccc(Cl)c(Cl)c1)N1CCC(=O)N(CCC(O)CN2CCC(CO)CC2)CC1` (racemic) [Example 379], 1500 nM.
With `C[C@@H]1C[C@H](O)CN(CC(O)CN2CCN(C(=O)/C=C/c3ccc(F)c(F)c3)CCC2=O)C1` (mixture of isomers) [Example 504] the figure was 316 nM; with `CC1(C)CCN(CC(O)CN2CCN(C(=O)/C=C/c3ccc(F)c(F)c3)CCC2=O)CC1O` (racemic) [Example 499], 84 nM; with `O=C(/C=C/c1ccc(Cl)c(Cl)c1)N1CCC(=O)N(CCCN2CC[C@@H](O)[C@@H](F)C2)CC1` (racemic) [Example 233, (rac, cis)-1-[(E)-3-(3,4-Dichloro-phenyl)-acryloyl]-4-[3-(3-fluoro-4-hydroxy-piperidin-1-yl)-propyl]-[1,4]diazepan-5-one], 359 nM.
Consider `COCC1CCCN(CCCCN2CCN(C(=O)/C=C/c3ccc(Cl)c(Cl)c3)CCC2=O)C1` (stereo not drawn) [Example 423], for which the IC50 was found to be 16 nM.
On to `COC1CCCN(CCCCN2CCN(C(=O)/C=C/c3ccc(F)c(Cl)c3)CCC2=O)C1` (racemic) [Example 395], for which the IC50 amounted to 996 nM.
The figure for `CC1CCN(CC(O)CN2CCN(C(=O)/C=C/c3ccc(Cl)c(Cl)c3)CCC2=O)CC1O` (racemic) [Example 280] is 21 nM.
The figure for `CC1(CO)CCN(CC(O)CN2CCN(C(=O)C=Cc3ccc(Cl)c(Cl)c3)CCC2=O)CC1O` (single isomer, unassigned) [Example 330] is 6 nM; for `CC1CCCCN1CCCN1CCN(C(=O)/C=C/c2ccc(Cl)c(Cl)c2)CCC1=O` (racemic) [Example 62, (+/−)-1-[(E)-3-(3,4-Dichloro-phenyl)-acryloyl]-4-[3-(2-methyl-piperidin-1-yl)-propyl]-[1,4]diazepan-5-one] it is 165 nM.
With `CC1(CO)CCCN(CCCN2CCN(C(=O)/C=C/c3ccc(Cl)c(Cl)c3)CCC2=O)C1` (racemic) [Example 248] the figure was 226 nM; with `O=C(/C=C/c1ccc(Cl)c(Cl)c1)N1CCC(=O)N(CCCCN2CCC(O)C(CO)C2)CC1` (racemic) [Example 450, (rac)-1-[(E)-3-(3,4-Dichloro-phenyl)-acryloyl]-4-[4-(4-hydroxy-3-hydroxymethyl-piperidin-1-yl)-butyl]-[1,4]diazepan-5-one], 243 nM.
